In brackets after ≈: the same amount, converted by molar mass.
Assays:
Sinorhizobium meliloti = assay: microbe, parasite or virus in culture; type: cell-based
CLAS = CLAS transmission rate using graft-based approach (Example 3); type: in vivo; details: budwood treated at 500 μg/ml, grafted onto Valencia trees
Description: HLB-infected budwoods were collected in HLB infected grove in teaching block at CREC. The presence of CLAS titers in budwood was confirmed by qPCR.
C16 and streptomycin were applied at the rate of 500 μg/ml; water-treated budwood was used as check. The budwoods were placed in a glass bottle containing either treatment or water as check. The glass bottles were kept in a ventilation hood with light on to increase the evaporation rate, therefore, promoting the uptake of antibiotics. Leaf and bark samples were collected from each budwood and 100 mg were accurately weighed and used for DNA extraction with Promega genomic DNA extraction kit. CLAS populations in each sample were determined using standard qPCR protocol. Each DNA sample was run in triplicate wells.
After overnight treatment, the antibiotic-treated budwood was grafted onto 2-3 years old Valencia trees. A total of 15 trees were grafted for each treatment. […] Four leaves from the main stem of Valencia trees were sampled for DNA extraction and determination of CLAS populations.

SecA of Ca. L. asiaticus = SecA of Ca. L. asiaticus (Candidatus Liberibacter asiaticus, UniProt A0ABM5NFG5); assay: biochemical
Mesorhizobium loti = assay: microbe, parasite or virus in culture; type: cell-based
Rhizobium etli = assay: microbe, parasite or virus in culture; type: cell-based
CLAS populations = assay: Effect on CLAS populations, mean Ct by quantitative PCR (Example 2)
[1] = system: Agrobacterium tumefaciens; assay: microbe, parasite or virus in culture; type: cell-based
Liberibacter crescens = assay: microbe, parasite or virus in culture; type: cell-based
A. tumefaciens = assay: microbe, parasite or virus in culture; type: cell-based; details: Agrobacterium tumefaciens, 24 h
Bradyrhizobium japonicum = assay: microbe, parasite or virus in culture; type: cell-based
Xanthomonas citri = assay: microbe, parasite or virus in culture; type: cell-based, Xanthomonas citri subsp. citri

| Compound | MBC (Sinorhizobium meliloti) | MIC (Sinorhizobium meliloti) | MBC (Mesorhizobium loti) | MIC (Mesorhizobium loti) | MBC (Rhizobium etli; 24 hrs) | MIC (Rhizobium etli; 24 hrs) | MBC (Rhizobium etli; 120 hrs) | MIC (Rhizobium etli; 120 hrs) | MBC [1] | MIC [1] | MBC (Liberibacter crescens; 24 h) | MIC (Liberibacter crescens; 24 h) | MBC (Liberibacter crescens; 120 h) | MIC (Liberibacter crescens; 120 h) | MBC (Bradyrhizobium japonicum; 24 hrs) | MIC (Bradyrhizobium japonicum; 24 hrs) | MBC (Bradyrhizobium japonicum; 120 hrs) | MIC (Bradyrhizobium japonicum; 120 hrs) | MBC (Xanthomonas citri) | MIC (Xanthomonas citri) | further results |
| --- | --- | --- | --- | --- | --- | --- | --- | --- | --- | --- | --- | --- | --- | --- | --- | --- | --- | --- | --- | --- | --- |
| CCc1nnc(NC(=O)c2cc3c([nH]c4ccccc43)c(C)n2)s1 [Compound C16, N-(5-ethyl-1,3,4-thiadiazol-2-yl)-1-methyl-9H-beta-carboline-3-carboxamide] | 64 µg/mL (≈ 190 µM) | 32 µg/mL (≈ 94.8 µM) | 16 µg/mL (≈ 47.4 µM) | 8 µg/mL (≈ 23.7 µM) | 16 µg/mL (≈ 47.4 µM) | 16 µg/mL (≈ 47.4 µM) | 32 µg/mL (≈ 94.8 µM) | 32 µg/mL (≈ 94.8 µM) | 128 µg/mL (≈ 379 µM) | 64 µg/mL (≈ 190 µM) | 16 µg/mL (≈ 47.4 µM) | 8 µg/mL (≈ 23.7 µM) | 32 µg/mL (≈ 94.8 µM) | 16 µg/mL (≈ 47.4 µM) | 16 µg/mL (≈ 47.4 µM) | 16 µg/mL (≈ 47.4 µM) | 32 µg/mL (≈ 94.8 µM) | 32 µg/mL (≈ 94.8 µM) | 32 µg/mL (≈ 94.8 µM) | 16 µg/mL (≈ 47.4 µM) | CLAS transmission rate (% trees tested positive for CLAS) (CLAS; 3 months after grafting): 6.7%; CLAS transmission rate (% trees tested positive for CLAS) (CLAS; 6 months after grafting): 80%; IC50 (SecA of Ca. L. asiaticus): 250 nM; inhibition of ATPase activity of SecA, in words (SecA of Ca. L. asiaticus): high activity; mean Ct value (CLAS populations) (CLAS populations; 2 days after treatment): 23.76 a; mean Ct value (CLAS populations) (CLAS populations; 4 days after treatment): 25.43 b; mean Ct value (CLAS populations) (CLAS populations; Before treatment): 22.71 a; CLAS population reduction as compared to water-treated control (CLAS populations; P<0.05, Fisher's LSD): significant effect; MBC (A. tumefaciens): 256 µg/mL (≈ 759 µM) |
| COc1cc(-c2cc(-c3ccccc3)nc3sc(C(=O)O)c(N)c23)cc(OC)c1OC [Compound C17, 3-amino-6-phenyl-4-(3,4,5-trimethoxy-phenyl)thieno [2,3-b]pyridine-2-carboxylic acid] | 32 µg/mL (≈ 73.3 µM) | 16 µg/mL (≈ 36.7 µM) | 32 µg/mL (≈ 73.3 µM) | 16 µg/mL (≈ 36.7 µM) | 64 µg/mL (≈ 147 µM) | 32 µg/mL (≈ 73.3 µM) | 64 µg/mL (≈ 147 µM) | 32 µg/mL (≈ 73.3 µM) | 64 µg/mL (≈ 147 µM) | 64 µg/mL (≈ 147 µM) | 16 µg/mL (≈ 36.7 µM) | 16 µg/mL (≈ 36.7 µM) | 32 µg/mL (≈ 73.3 µM) | 32 µg/mL (≈ 73.3 µM) | 32 µg/mL (≈ 73.3 µM) | 16 µg/mL (≈ 36.7 µM) | 64 µg/mL (≈ 147 µM) | 32 µg/mL (≈ 73.3 µM) | 32 µg/mL (≈ 73.3 µM) | 16 µg/mL (≈ 36.7 µM) | IC50 (SecA of Ca. L. asiaticus): 920 nM; MBC (A. tumefaciens): 256 µg/mL (≈ 586 µM) |
| COc1ccc(NC(=O)C2(NC(=O)c3ccc(-n4cnnn4)cc3)CCCCC2)cc1 [Compound C18, N-(1-{[(4-methoxy-phenyl)amino]carbonyl}cyclo-hexyl)-4-(1H-tetrazol-1-yl)benzamide] | 64 µg/mL (≈ 152 µM) | 32 µg/mL (≈ 76.1 µM) | 32 µg/mL (≈ 76.1 µM) | 16 µg/mL (≈ 38.1 µM) | 16 µg/mL (≈ 38.1 µM) | 16 µg/mL (≈ 38.1 µM) | 32 µg/mL (≈ 76.1 µM) | 32 µg/mL (≈ 76.1 µM) | 128 µg/mL (≈ 304 µM) | 32 µg/mL (≈ 76.1 µM) | 8 µg/mL (≈ 19 µM) | 8 µg/mL (≈ 19 µM) | 16 µg/mL (≈ 38.1 µM) | 16 µg/mL (≈ 38.1 µM) | 8 µg/mL (≈ 19 µM) | 8 µg/mL (≈ 19 µM) | 16 µg/mL (≈ 38.1 µM) | 16 µg/mL (≈ 38.1 µM) | 32 µg/mL (≈ 76.1 µM) | 16 µg/mL (≈ 38.1 µM) | IC50 (SecA of Ca. L. asiaticus): 480 nM; MBC (A. tumefaciens): 256 µg/mL (≈ 609 µM) |
| COc1ccc2nc(NC(=O)CSc3nc4cc(C)ccc4[nH]3)sc2c1 [Compound C19, N-(6-methoxy-1,3-benzo-thiazol-2-yl)-2-[(5-methyl-1H-benz-imidazol-2-yl)thio]acetamide] | 64 µg/mL (≈ 166 µM) | 32 µg/mL (≈ 83.2 µM) | 32 µg/mL (≈ 83.2 µM) | 16 µg/mL (≈ 41.6 µM) | 32 µg/mL (≈ 83.2 µM) | 32 µg/mL (≈ 83.2 µM) | 64 µg/mL (≈ 166 µM) | 32 µg/mL (≈ 83.2 µM) | 128 µg/mL (≈ 333 µM) | 32 µg/mL (≈ 83.2 µM) | 8 µg/mL (≈ 20.8 µM) | 8 µg/mL (≈ 20.8 µM) | 16 µg/mL (≈ 41.6 µM) | 16 µg/mL (≈ 41.6 µM) | 32 µg/mL (≈ 83.2 µM) | 32 µg/mL (≈ 83.2 µM) | 64 µg/mL (≈ 166 µM) | 64 µg/mL (≈ 166 µM) | 64 µg/mL (≈ 166 µM) | 32 µg/mL (≈ 83.2 µM) | IC50 (SecA of Ca. L. asiaticus): 640 nM; MBC (A. tumefaciens): 128 µg/mL (≈ 333 µM) |
| O=C1CCCC2=C1C(c1cccs1)Nc1ccc(C(=O)c3ccccc3)cc1N2 (centres unmarked) [Compound C20, 7-benzoyl-11-(2-thienyl)-2,3,4,5,10,11-hexahydro-1H-diabenzo[b,e] [1,4]diazepin-1-one] | 16 µg/mL (≈ 39.9 µM) | 16 µg/mL (≈ 39.9 µM) | 16 µg/mL (≈ 39.9 µM) | 8 µg/mL (≈ 20 µM) | 64 µg/mL (≈ 160 µM) | 32 µg/mL (≈ 79.9 µM) | 64 µg/mL (≈ 160 µM) | 32 µg/mL (≈ 79.9 µM) | 128 µg/mL (≈ 320 µM) | 32 µg/mL (≈ 79.9 µM) | 16 µg/mL (≈ 39.9 µM) | 16 µg/mL (≈ 39.9 µM) | 32 µg/mL (≈ 79.9 µM) | 32 µg/mL (≈ 79.9 µM) | 32 µg/mL (≈ 79.9 µM) | 16 µg/mL (≈ 39.9 µM) | 64 µg/mL (≈ 160 µM) | 16 µg/mL (≈ 39.9 µM) | 32 µg/mL (≈ 79.9 µM) | 16 µg/mL (≈ 39.9 µM) | IC50 (SecA of Ca. L. asiaticus): 440 nM; MBC (A. tumefaciens): 256 µg/mL (≈ 639 µM) |
| CN(C)[C@@H]1C(O)=C(C(N)=O)C(=O)[C@@]2(O)C(O)=C3C(=O)c4c(O)cccc4[C@@](C)(O)[C@H]3[C@H](O)[C@@H]12 [Oxytetracycline, reference compound] |  |  |  |  | 4 µg/mL (≈ 8.69 µM) | 4 µg/mL (≈ 8.69 µM) | 4 µg/mL (≈ 8.69 µM) | 4 µg/mL (≈ 8.69 µM) |  |  |  |  | 8 µg/mL (≈ 17.4 µM) | 8 µg/mL (≈ 17.4 µM) | 4 µg/mL (≈ 8.69 µM) | 4 µg/mL (≈ 8.69 µM) | 4 µg/mL (≈ 8.69 µM) | 4 µg/mL (≈ 8.69 µM) |  |  | mean Ct value (CLAS populations) (CLAS populations; 2 days after treatment): 26.10 b; mean Ct value (CLAS populations) (CLAS populations; 4 days after treatment): 25.61 b; mean Ct value (CLAS populations) (CLAS populations; Before treatment): 25.36 a |
| COc1ccc(N(C(=O)c2ccc(-n3cnnn3)cc2)C2(C(=O)Nc3ccccc3C)CCCCC2)cc1 [SSC11, N-(4-methoxy-phenyl)-N-{1-[(2-methyl-phenyl)carbamoyl]cyclohexyl}-4-(1H-tetrazol-1-yl)benzamide] | 64 µg/mL (≈ 125 µM) | 32 µg/mL (≈ 62.7 µM) | 32 µg/mL (≈ 62.7 µM) | 16 µg/mL (≈ 31.3 µM) | 32 µg/mL (≈ 62.7 µM) | 16 µg/mL (≈ 31.3 µM) | 64 µg/mL (≈ 125 µM) | 32 µg/mL (≈ 62.7 µM) | 128 µg/mL (≈ 251 µM) | 32 µg/mL (≈ 62.7 µM) | 16 µg/mL (≈ 31.3 µM) | 16 µg/mL (≈ 31.3 µM) | 32 µg/mL (≈ 62.7 µM) | 32 µg/mL (≈ 62.7 µM) | 16 µg/mL (≈ 31.3 µM) | 16 µg/mL (≈ 31.3 µM) | 32 µg/mL (≈ 62.7 µM) | 32 µg/mL (≈ 62.7 µM) | 64 µg/mL (≈ 125 µM) | 32 µg/mL (≈ 62.7 µM) |  |
| [H]/N=C(/N)N[C@H]1[C@H](O)[C@@H](O)[C@H](O[C@@H]2O[C@@H](C)[C@](O)(C=O)[C@H]2O[C@@H]2O[C@@H](CO)[C@H](O)[C@@H](O)[C@@H]2NC)[C@@H](N/C(N)=N\[H])[C@@H]1O [Streptomycin, reference compound] | 128 µg/mL (≈ 220 µM) | 64 µg/mL (≈ 110 µM) | 32 µg/mL (≈ 55 µM) | 16 µg/mL (≈ 27.5 µM) | 4 µg/mL (≈ 6.88 µM) | 4 µg/mL (≈ 6.88 µM) | 16 µg/mL (≈ 27.5 µM) | 16 µg/mL (≈ 27.5 µM) | 128 µg/mL (≈ 220 µM) | 64 µg/mL (≈ 110 µM) | 16 µg/mL (≈ 27.5 µM) | 16 µg/mL (≈ 27.5 µM) | 32 µg/mL (≈ 55 µM) | 32 µg/mL (≈ 55 µM) | 32 µg/mL (≈ 55 µM) | 32 µg/mL (≈ 55 µM) | 32 µg/mL (≈ 55 µM) | 32 µg/mL (≈ 55 µM) | 32 µg/mL (≈ 55 µM) | 32 µg/mL (≈ 55 µM) | CLAS transmission rate (% trees tested positive for CLAS) (CLAS; 3 months after grafting): 13.3%; CLAS transmission rate (% trees tested positive for CLAS) (CLAS; 6 months after grafting): 66.7%; MBC (A. tumefaciens): 64 µg/mL (≈ 110 µM) |
